One assay concerns Karpas-422 xenograft. As to the kind of experiment: Multiplexed QuantiGene assay of signature genes in Karpas-422 mouse xenograft tumors. It counts as in vivo. As to the method:
(§1) FIGS. 4A and B illustrate a comparison of Compound 1-mediated H3K27me3 level and gene expression changes in phenotypically responsive Karpas-422 xenografts where (A) represents tumor samples (n=4) from a Karpas-422 mouse xenograft experiment in which mice were dosed twice daily, orally with vehicle, 100 or 200 mg/kg of Compound 1 for 4, 7, or 14 days, and were analyzed by ELISA assays to determine H3K27me3 levels; and (B) is the same tumor samples described in (A) (n=4), but were analyzed by a multiplexed QuantiGene® assay for the transcript levels of 50 genes, 4 of which were housekeeping.
For isolation of RNA from tissues: Tumor samples from a Karpas-422 mouse xenograft experiment in which mice were dosed BID with vehicle, 100 or 200 mpk Compound 1 for 4, 7, or 14 days, were obtained. Tumors were frozen in liquid nitrogen, then pulverized. A small aliquot of frozen, pulverized tissue was resuspended in 600 μl buffer RLT (Qiagen) containing 65 mM DTT, applied to a QIAShredder column (Qiagen), and centrifuged for 3 min at 20,000×g. […] RNA was eluted in nuclease-free water, and concentrations were normalized following quantitation on a NanoDrop 2000 UV-vis spectrophotometer.
Initial tests were performed to determine the linearity of the QuantiGene® Plex Set, followed by full validation of the assay showing time- and dose-dependent gene expression changes in a mouse xenograft treated with Compound 1. […] The QuantiGene® assay was performed as per the manufacturer's protocol, and quantitated on a Luminex Magpix. […]
(§2) For each gene in each sample, the background median fluorescence intensity (MFI) value (recorded on the Luminex Magpix) was subtracted from the gene's measured MFI value. […]
Following regularization, the data from each well was processed independently by first generating a normalization factor by taking the geometric mean of regularized background-subtracted MFI values for 4 housekeeping genes (ACTB, POLR2A, PPIB, TBP). […] If more than 1 technical replicate was run for an individual sample, an average value was then calculated for each gene. […]

Assay [1] has as its system H3K27me3 levels in Karpas-422 xenografts. As to the kind of experiment: H3K27me3 ELISA of Karpas-422 mouse xenograft tumor samples. The class given is in vivo. As to conditions: Karpas-422 xenograft, 100 or 200 mg/kg BID oral. As to the method:
as §1

Assay [2] has as its system global H3K27me3 levels in Karpas-422 GCB-DLBCL cells. In words: H3K27me3 western blotting in Karpas-422 cells treated with EZH2 inhibitors. It counts as cell-based, human. As to conditions: 1.5 μM, 4 days, vs DMSO, total H3 as control. As to the method: Lymphoma cell lines were grown in 10 ml cultures (as described in 2.1). […] After drug treatment, cells were centrifuged at 500×g for 3 min, supernatant was removed, and cell pellet was resuspended in 0.75 ml Trizol Reagent (Life Technologies, catalog #15596-026). RNA was extracted as per the manufacturer's protocol, resuspended in nuclease-free water, quantified using a NanoDrop 2000 UV-vis spectrophotometer (Thermo Scientific), and sent to Ocean Ridge Biosciences (http://www.oceanridgebio.com/) for RNA-sequencing. […]
In order to detect potential EZH2 inhibitor-mediated gene expression changes that could serve as a manifestation of target engagement, Karpas-422 GCB-DLBCL cells were treated with vehicle (dimethyl sulfoxide; DMSO) or Compound 1 for 4 days. […] The samples that were committed to RNA-sequencing were analyzed for changes in H3K27me3 levels by western blotting. […]

A further assay deals with Karpas-422 cells. As to the kind of experiment: Multiplexed QuantiGene assay of EZH2-controlled signature genes in Karpas-422 cells in vitro. The class given is cell-based, human. As to conditions: 1.5 μM, 4 days, vs DMSO. As to the method:
The gene list described in Table 2 was submitted to Affymetrix, and a multiplexed QuantiGene® assay (https://www.ebioscience.com/application/gene-expression/quantigene-plex-assay.htm) probe set on the basis was generated specific to the human genome (see Appendix B). The primer and probe sequences used to generate the multiplex assay were not made available by the vendor.
In addition to validating the assay using a Karpas-422 mouse xenograft model, RNA from Karpas-422 cells treated with 1.5 μM Compound 1 for 4 days was also used. Samples were processed and quantitated as described above. […]
as §2
(§3) Following regularization, the data from each well was processed independently by first generating a normalization factor by taking the geometric mean of regularized background-subtracted MFI values for 4 housekeeping genes (ACTB, POLR2A, PPIB, TBP). […] If more than 1 technical replicate was run for an individual sample, an average value was then calculated for each gene. These values were then converted to log 2 space, and log 2 fold change values were determined by subtracting vehicle/control values from treated values. […]

Assay [3] concerns Karpas-422 GCB-DLBCL cells. As to the kind of experiment: RNA-sequencing gene expression profiling of Karpas-422 cells. The class given is cell-based, human. As to conditions: 1.5 μM, 4 days. How it is done:
Lymphoma cell lines were grown in 10 ml cultures (as described in 2.1). Cells were treated with 0.1% DMSO, 1.5 μM Compound 1 or in the presence of 1.5 μM other EZH2 inhibitors such as GSK126 and EPZ6438 for 4 days. After drug treatment, cells were centrifuged at 500×g for 3 min, supernatant was removed, and cell pellet was resuspended in 0.75 ml Trizol Reagent (Life Technologies, catalog #15596-026). RNA was extracted as per the manufacturer's protocol, resuspended in nuclease-free water, quantified using a NanoDrop 2000 UV-vis spectrophotometer (Thermo Scientific), and sent to Ocean Ridge Biosciences (http://www.oceanridgebio.com/) for RNA-sequencing. Cell samples were collected and total RNA was prepared (see 2.2). […] (2) 7 DLBCL cell lines treated for 4 days with GSK343 (generated in two separate experiments, with HT and SUDHL6 comprising the first experiments, the other 5 cell lines in a second experiment. For the HT and SUDHL6 cell samples in dataset 2, reads were aligned to the hg19 genome using bowtie version 0.12.9. The other datasets were aligned to the hg19 genome with Tophat 1.4.1 The aligned read files were sorted and duplicates removed using sort and rmdup functions from samtools version 0.1.182. See Li, H. et al. The Sequence Alignment/Map format and SAMtools. Bioinformatics 25, 2078-2079 (2009). […]

The test system of the next assay is RL xenograft. In words: Multiplexed QuantiGene assay of signature genes in RL mouse xenograft tumors. It counts as in vivo. As to conditions: 200 mg/kg twice daily, day 18, tumors harvested 6 hours post-last dose. As to the method:
(§4) To verify the gene signature as a readout of target engagement and not phenotypic responsive, an EZH2 inhibitor-insensitive GCB-DLBCL cell line, RL, was utilized in a mouse xenograft model. The RL xenograft bearing mice were treated twice daily with 200 mg/kg Compound 2 or vehicle control for 18 days. […] Tumors were harvested 6 hours post-last dose on day 18 of treatment and processed and analyzed using the QuantiGene® Plex assay, as described above.
as §2, §3
To determine the statistical significance of the engagement score, a phenotype permutation test was performed by randomly assigning the empirically determined expression values for each gene to the control or treated condition. […]

Assay [4] concerns RL xenograft (EZH2 inhibitor-insensitive GCB-DLBCL cell line). In words: RL mouse xenograft tumor volume. The class given is in vivo. As to conditions: 200 mg/kg twice daily, 18 days. How it is done: as §4

SMILES strings stand for the structures. Entries after “also recorded” stand apart in the source; their conditions may differ.

With `COc1cc(C)[nH]c(=O)c1CNC(=O)c1c(C)n([C@H](C)C2CCN(CC(F)(F)F)CC2)c2ccccc12` [Compound 1, (R)—N-((4-methoxy-6-methyl-2-oxo-1,2-dihydropyridin-3-yl)methyl)-2-methyl-1-(1-(1-(2,2,2-trifluoroethyl)piperidin-4-yl)ethyl)-1H-indole-3-carboxamide], the “signature gene expression in tumors vs vehicle-treated tumors” value with Karpas-422 xenograft (100 or 200 mg/kg BID oral, 4, 7 and 14 days, tumors harvested 6 hours post last dose) was “significant induction of signature genes in a dose- and time-dependent manner; also recorded: significant alteration of signature genes; also recorded: significantly induced EZH2-target genes”. Moreover, the “gene expression signature (aggregate gene score), treatment arms vs vehicle arms” value in the assay on Karpas-422 xenograft (100 or 200 mg/kg BID oral, all three time points (4, 7, 14 days)) was “robust and statistically significant change”. In the assay with Karpas-422 xenograft (4 days, 100 mg/kg BID and 200 mg/kg BID, vs cells at 1.5 μM for 4 days), the “magnitude of signature gene expression changes in tumors compared with cells treated in vitro” value is “did not show the same magnitude of signature gene expression changes”. Also, the “H3K27me3 levels normalized to total histone H3 (ELISA)” value is recorded as “significant reduction in H3K27me3 levels” in assay [1] (14 days, t-test p<0.05 vs vehicle) and “not statistically significant” in assay [1] (earlier time points (4, 7 days)). The “global H3K27me3 levels (western blotting)” value in assay [2] is reported as “effectively reduced global H3K27me3 levels”. The “signature gene expression (QuantiGene)” value in the assay on Karpas-422 cells is “significant increase and decrease of signature gene expression”. In assay [3], the “gene expression changes compared with those of other EZH2 inhibitors (GSK126, EPZ-6438)” value is “remarkably similar”. Moreover, the “number of genes with significantly changed expression” value in assay [3] (vs DMSO, log 2 fold change >0.8, p<0.05) turned out to be 604 genes.
`CCS(=O)(=O)N1CCC([C@@H](C)n2c(C)c(C(=O)NCc3c(OC)cc(C)[nH]c3=O)c3ccccc32)CC1` [Compound 2]: in the assay on RL xenograft, the “gene signature score (QuantiGene)” value is given as “statistically significant gene signature score”. Further, in assay [4], the “tumor volume vs vehicle-treated mice” value is “No reduction in tumor volume”.
Consider `CCC(C)n1cc(C)c2c(C(=O)NCc3c(C)cc(C)[nH]c3=O)cc(-c3ccc(N4CCNCC4)nc3)cc21` (stereo not drawn) [GSK126, reference compound], for which the “global H3K27me3 levels (western blotting)” value in assay [2] was “substantial loss of H3K27me3”.

The values are drawn from patent US20210161883A1, “EZH2 INHIBITOR-INDUCED GENE EXPRESSION” (Constellation Pharmaceuticals, Inc., priority 2017, published 2021).
